Where a name gives a salt, the structure may show the parent alone.
These molecules were tested against T1, human V1b receptor (Homo sapiens, UniProt P47901) (assay: V1b receptor binding assay ([3H](Arg8)-vasopressin, crude membranes of CHO cells)). Conditions: 0.1 μmol/L test drug, V1b receptor binding assay; read-out: Rate of inhibition (V1b: % of inhibition).
T1 construct: expressed in transfected cells; host or cells: CHO cells
T1 sequence (P47901 1-424): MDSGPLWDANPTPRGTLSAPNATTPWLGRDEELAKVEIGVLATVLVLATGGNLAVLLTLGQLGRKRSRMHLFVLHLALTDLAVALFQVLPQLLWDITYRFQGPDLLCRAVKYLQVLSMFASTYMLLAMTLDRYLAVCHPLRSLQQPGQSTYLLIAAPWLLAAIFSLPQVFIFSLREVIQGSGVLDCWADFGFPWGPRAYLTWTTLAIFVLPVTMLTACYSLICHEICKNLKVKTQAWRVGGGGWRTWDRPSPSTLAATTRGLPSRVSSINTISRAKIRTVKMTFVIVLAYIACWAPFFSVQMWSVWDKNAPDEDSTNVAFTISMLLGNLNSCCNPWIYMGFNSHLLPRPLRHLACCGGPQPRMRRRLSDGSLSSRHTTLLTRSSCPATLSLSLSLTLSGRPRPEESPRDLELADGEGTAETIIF
Experimental: A summary of the methods is given below.
Each obtained homogenate was centrifuged for 20 minutes at 50,000×g and 4° C., the sediment was resuspended in a 50 mmol/L Tris hydrochloric acid buffer solution (pH7.4, containing 10 mmol/L magnesium chloride and 0.1% bovine serum albumin), which served as a crude membrane preparation. This crude membrane preparation was added with [^3H] (Arg^8) vasopressin (final concentration: 0.1 nmol/L to 0.4 nmol/L), and each test drug (final concentration: 0.1 nmol/L to lμmol/L or 0.01 nmol/L to 0.1 μmol/L) to 22° C. for 90 minutes. After the end of the reaction, the reaction solution was filtrated using a GF/C glass fiber filter, which had been presoaked in 0.3% polyethyleneimine for two hours. After the GF/C glass fiber filter was dried sufficiently, scintillator was added, and the radioactivity on the filter was measured using a liquid scintillation counter. Binding of [^3H] (Arg^8)-vasopressin in the presence of (Arg^8)-vasopressin, in the amounts of 0.1 μmol/L in the V1b receptor binding assay and 5 μmol/L in the V1a and V2 receptor binding assay, were taken as non-specific binding, and the value obtained by subtracting non-specific binding from the total binding in the absence (Arg^8)-vasopressin served as specific binding.
In addition, regarding the V1b receptor binding assay, the value obtained by, subtracting the amount of binding in the presence of 0.1 μmol/L test drug from the total amount of binding, divided by the amount of specific binding, served as the rate of inhibition (% of inhibition) of the test drug at the concentration tested.

| inhibition at 0.1 µM | Compound |
| --- | --- |
| 93% | COc1ccc(S(=O)(=O)N2C(=O)C(c3cc(C)cnc3OC)(N3C[C@H](O)C[C@H]3C(=O)N(C)C)c3cc(Cl)ccc32)c(OCC(F)(F)F)c1 (single isomer, unassigned) [Example 169] |
| 95% | COc1ccc(S(=O)(=O)N2C(=O)C(c3cc(C)ccc3OC)(N3C[C@H](O)C[C@H]3C(=O)N(C)C)c3cc(Cl)ccc32)c(OCC(F)(F)F)c1 (single isomer, unassigned) [Example 171] |
| 97% | COc1ccc(C)cc1C1(N2C[C@H](O)C[C@H]2C(=O)N(C)C)C(=O)N(S(=O)(=O)c2ccc(OC)c(OC)c2OC)c2ccc(Cl)cc21 (single isomer, unassigned) [Example 176] |
| 93% | COc1ccc(S(=O)(=O)N2C(=O)C(c3cc(N(C)C)ccc3OC)(N3C[C@H](O)C[C@H]3C(=O)N(C)C)c3cc(Cl)ccc32)c(OC(F)(F)F)c1 (single isomer, unassigned) [Example 190] |
| 98% | COc1ccc(S(=O)(=O)N2C(=O)C(c3cc(CN4CCCC4)ccc3OC)(N3C[C@H](O)C[C@H]3C(=O)N(C)C)c3cc(Cl)ccc32)c(OC(F)(F)F)c1 (single isomer, unassigned) [Example 199] |
| 53% | COc1ccc(S(=O)(=O)N2C(=O)C(c3cc(CN4CCN(C(=O)OC(C)(C)C)CC4)ccc3OC)(N3C[C@H](O)C[C@H]3C(=O)N(C)C)c3cc(Cl)ccc32)c(OC(F)(F)F)c1 (single isomer, unassigned) [Example 201] |
| 87% | COc1ccc(S(=O)(=O)N2C(=O)C(c3cc(CO)ccc3OC)(N3C[C@H](O)C[C@H]3C(=O)N(C)C)c3cc(Cl)ccc32)c(OC(F)(F)F)c1 (single isomer, unassigned) [Example 203] |
| 101% | COc1ccc(S(=O)(=O)N2C(=O)C(c3cc(C(C)C)ccc3OC)(N3C[C@H](O)C[C@H]3C(=O)N(C)C)c3cc(Cl)ccc32)c(OC(F)(F)F)c1 (single isomer, unassigned) [Example 230] |
| 93% | COc1ccc(S(=O)(=O)N2C(=O)C(c3cc(CC#N)ccc3OC)(N3C[C@H](O)C[C@H]3C(=O)N(C)C)c3cc(Cl)ccc32)c(OC(F)(F)F)c1 (single isomer, unassigned) [Example 236] |
| 89% | COc1ccc(S(=O)(=O)N2C(=O)C(c3cc(C#N)ccc3OC)(N3C[C@H](O)C[C@H]3C(=O)N(C)C)c3cc(Cl)ccc32)c(OC(F)(F)F)c1 (single isomer, unassigned) [Example 238] |
| 85% | COc1ccc(S(=O)(=O)N2C(=O)C(c3cccc(OC)c3OC)(N3C[C@H](O)C[C@H]3C(=O)N(C)C)c3cc(Cl)ccc32)c(OC(F)(F)F)c1 (single isomer, unassigned) [Example 240] |
| 66% | COc1ccc(S(=O)(=O)N2C(=O)C(c3ccccc3OC)(N3c4ccccc4C[C@H]3C(=O)N(C)C)c3cc(Cl)ccc32)c(OC(F)(F)F)c1 (stereo partly drawn) [Example 40, (2S)-5′-chloro-3′-(2-methoxyphenyl)-1′-{[4-methoxy-2-(trifluoromethoxy)phenyl]sulfonyl}-N,N-dimethyl-2′-oxo-2,2′,3,3′-tetrahydro-1′H-1,3′-biindole-2-carboxamide] |
| 92% | COc1ccc(S(=O)(=O)N2C(=O)C(CC(=O)N3CCN(c4ccncc4)CC3)(c3ccccc3OC)c3cc(Cl)ccc32)c(OC(F)(F)F)c1 (centres unmarked) [Example 43, 5-chloro-3-(2-methoxyphenyl)-1-{[4-methoxy-2-(trifluoromethoxy)phenyl]sulfonyl}-3-[2-oxo-2-(4-pyridin-4-ylpiperazin-1-yl)ethyl]-1,3-dihydro-2H-indol-2-one hydrochloride 1.5 hydrate] |
| 77% | COc1ccc(S(=O)(=O)N2C(=O)C(NCC(=O)N3CCN(c4ccncc4)CC3)(c3ccccc3OC)c3cc(Cl)ccc32)c(OC(F)(F)F)c1 (centres unmarked) [Example 58, 5-chloro-3-(2-methoxyphenyl)-1-{[4-methoxy-2-(trifluoromethoxy)phenyl]sulfonyl}-3-{[2-oxo-2-(4-pyridin-4-ylpiperazin-1-yl)ethyl]amino}-1,3-dihydro-2H-indol-2-one] |
| 69% | COC(=O)[C@H](C)OC1(c2ccccc2OC)C(=O)N(S(=O)(=O)c2ccc(OC)cc2OC(F)(F)F)c2ccc(Cl)cc21 (stereo partly drawn) [Example 80, Methyl (2S)-2-[(5-chloro-3-(2-methoxyphenyl)-1-{[4-methoxy-2-(trifluoromethoxy)phenyl]sulfonyl}-2-oxo-2,3-dihydro-1H-indol-3-yl)oxy]propanoate] |
| 97% | COc1ccc(S(=O)(=O)N2C(=O)C(c3cccc4c3OCC4)(N3CCCC[C@H]3C(=O)N(C)C)c3cc(Cl)ccc32)c(OC(F)(F)F)c1 (stereo partly drawn) [Example 90, (2S)-1-(5-chloro-3-(2,3-dihydro-1-benzofuran-7-yl)-1-{[4-methoxy-2-(trifluoromethoxy)phenyl]sulfonyl}-2-oxo-2,3-dihydro-1H-indol-3-yl)-N,N-dimethylpiperidine-2-carboxamide] |
| 55% | COc1ccc(S(=O)(=O)N2C(=O)C(c3cc(C)ccc3OC)(N3CCN(c4ccncc4)CC3C(=O)N(C)C)c3cc(Cl)ccc32)c(OC(F)(F)F)c1 (centres unmarked) [Example 112, 1-(5-chloro-3-(2-methoxy-5-methylphenyl)-1-{[4-methoxy-2-(trifluoromethoxy)phenyl]sulfonyl}-2-oxo-2,3-dihydro-1H-indol-3-yl)-N,N-dimethyl-4-pyridin-4-yl piperazine-2-carboxamide] |
| 103% | COc1ccc(S(=O)(=O)N2C(=O)C(c3cc(C)ccc3OC)(N3C[C@H](OCCCO)C[C@H]3C(=O)N(C)C)c3cc(Cl)ccc32)c(OC(F)(F)F)c1 (stereo partly drawn) [Example 139, (4R)-1-(5-chloro-3-(2-methoxy-5-methylphenyl)-1-{[4-methoxy-2-(trifluoromethoxy)phenyl]sulfonyl}-2-oxo-2,3-dihydro-1H-indol-3-yl)-4-(3-hydroxypropoxy)-N,N-dimethyl-L-prolinamide] |
| 95% | COc1ccc(S(=O)(=O)N2C(=O)C(c3cc(C)ccc3OC)(N3C[C@H](OCCC(N)=O)C[C@H]3C(=O)N(C)C)c3cc(Cl)ccc32)c(OC(F)(F)F)c1 (stereo partly drawn) [Example 144, (4R)-4-(3-amino-3-oxopropoxy)-1-(5-chloro-3-(2-methoxy-5-methylphenyl)-1-{[4-methoxy-2-(trifluoromethoxy)phenyl]sulfonyl}-2-oxo-2,3-dihydro-1H-indol-3-yl)-N,N-dimethyl-L-prolinamide] |
| 85% | COc1ccc(S(=O)(=O)N2C(=O)C(c3cc(C)ccc3OC)(N3C[C@H](OCC(=O)O)C[C@H]3C(=O)N(C)C)c3cc(Cl)ccc32)c(OC(F)(F)F)c1 (stereo partly drawn) [Example 148, ({(3R,5S)-1-(5-chloro-3-(2-methoxy-5-methylphenyl)-1-{[4-methoxy-2-(trifluoromethoxy)phenyl]sulfonyl}-2-oxo-2,3-dihydro-1H-indol-3-yl)-5-[(dimethylamino)carbonyl]pyrrolidin-3-yl}oxy)acetic acid] |
| 89% | COc1ccc(S(=O)(=O)N2C(=O)C(c3cc(C)ccc3OC)(N3C[C@H](OCC(O)CO)C[C@H]3C(=O)N(C)C)c3cc(Cl)ccc32)c(OC(F)(F)F)c1 (stereo partly drawn) [Example 150, (4R)-1-(5-chloro-3-(2-methoxy-5-methylphenyl)-1-{[4-methoxy-2-(trifluoromethoxy)phenyl]sulfonyl}-2-oxo-2,3-dihydro-1H-indol-3-yl)-4-(2,3-dihydroxypropoxy)-N,N-dimethyl-L-prolinamide] |
| 107% | CCN(C)CCCO[C@@H]1C[C@@H](C(=O)N(C)C)N(C2(c3cc(C)ccc3OC)C(=O)N(S(=O)(=O)c3ccc(OC)cc3OC(F)(F)F)c3ccc(Cl)cc32)C1 (stereo partly drawn) [Example 152, (4R)-1-(5-chloro-3-(2-methoxy-5-methylphenyl)-1-{[4-methoxy-2-(trifluoromethoxy)phenyl]sulfonyl}-2-oxo-2,3-dihydro-1H-indol-3-yl)-4-{3-[ethyl(methyl)amino]propoxy}-N,N-dimethyl-L-prolinamide] |
| 100% | COc1ccc(S(=O)(=O)N2C(=O)C(c3cc(C)ccc3OC)(N3C[C@H](OCCCN4CCN(C)CC4)C[C@H]3C(=O)N(C)C)c3cc(Cl)ccc32)c(OC(F)(F)F)c1 (stereo partly drawn) [Example 154, (4R)-1-(5-chloro-3-(2-methoxy-5-methylphenyl)-1-{[4-methoxy-2-(trifluoromethoxy)phenyl]sulfonyl}-2-oxo-2,3-dihydro-1H-indol-3-yl)-N,N-dimethyl-4-[3-(4-methylpiperazin-1-yl)propoxy]-L-prolinamide] |

Source: patent US8030499B2, “1,3-dihydro-2H-indole-2-one compound and pyrrolidine-2-one compound fused with aromatic heterocycle” (Taisho Pharmaceutical Co., Ltd., priority 2005, dated 2011)
